## C=CCC1CN(C)CCC1(OC(=O)CC)c1ccccc1 (stereo not drawn)
  logP: 2.97

## COc1cccc([C@]2(O)CCCC[C@H]2CN(C)C)c1 (relative stereo)
  logP: 2.51

## COc1ccccc1/C=C/C(=O)O
  logP: 2.54

## OC(c1ccccc1)C(O)c1ccccc1 (stereo not drawn)
  logP: 1.91

## O=[N+]([O-])c1ccc(O[C@@H]2O[C@H](CO)[C@H](O)[C@H](O)[C@H]2O)cc1
  logP: -0.63

## NC1C2CCC1c1ccccc12 (stereo not drawn)
  logP: 2.01

## C[C@H](N)[C@H](O)c1ccccc1 (relative stereo)
  logP: 0.67

## NC1C2CCC1c1ccc(C(F)(F)F)cc1C2 (stereo not drawn)
  logP: 3.54

## CCC(=O)O[C@]1(c2ccccc2)C[C@H](C)N(C)C[C@H]1C
  logP: 3.13

## Cc1cc(=O)oc2ccc(O[C@@H]3O[C@H](CO)[C@@H](O)[C@H](O)[C@H]3O)cc12
  logP: -0.66

## NC1C2CCC1c1cccc(C(F)(F)F)c1C2 (stereo not drawn)
  logP: 3.41

## CC(=O)OC1(c2ccccc2)CCN(C)C(C)C1C (stereo not drawn)
  logP: 2.51

## NC1CCc2ccccc2C1O (stereo not drawn)
  logP: 0.81

## NC1C2CCC1c1cc(C(F)(F)F)ccc1C2 (stereo not drawn)
  logP: 3.45

## C=C[C@H]1CN2CC[C@H]1C[C@@H]2[C@@H](O)c1ccnc2ccccc12
  logP: 2.68

## CCC(=O)OC1(c2ccccc2)CCN(C)C(C)C1C (stereo not drawn)
  logP: 2.97

## NC1C2CCC1c1ccccc1C2 (stereo not drawn)
  logP: 2.04

## CCC(=O)OC1(c2ccccc2)CCN(C)CC1C (stereo not drawn)
  logP: 2.43
